Where “and” joins values, the source holds several entries; their conditions need not be identical. Equal entries are not always repeated.
Tested on: MCF7 complex spheroid growth, % test/control
Assay: Anticancer human tumor MCF7 cell line growth inhibition [Asc];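 further: spheroids exposed to compounds for 7 days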;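 on viability, T/C: 100% = DMSO vehicle control wells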
Details: for viability, T/C: stronger effect = lower value
Experimental: Multicellular complex tumor spheroid response to apoptosis pathway targeting inhibitors Alrizomadlin, Pelcitoclax, and Dasminapant in combination with a variety of drugs and investigational agents in selected tumor cell lines
The MDM2 inhibitor alrizomadlin, the Bcl-2/Bcl-xL inhibitor pelcitoclax, and the IAPs inhibitor dasminapant were evaluated both individually and in combination with standard of care and investigational anticancer small molecules within a complex spheroid model of solid tumors. . Complex spheroids include a stromal component modeled by human endothelial cells (HUVEC) and fibroblasts modeled by human mesenchymal stem cells (MSCs). The concentration ranges selected for each drug and investigational agent were based upon clinically achievable concentrations if the clinical Cmax of the agent was known.
Compounds. The drugs and investigational agents: alrizomadlin (APG-115; NSC831270), pelcitoclax (APG-1252; NSC835773), dasminapant (APG-1387;NSC834197), TAK-243 (NSC785004), copanlisib (NSC809693), olaparib (NSC753686), talazoparib (NSC767125), cobimetinib (NSC 768068), eltanexor (KPT-8602, NSC 794443), abemaciclib (NSC 768073), sotorasib (NSC818433), adagrasib (NSC 831453), MRTX-1133 (NSC 836407), Iadademestat (ORY1001, NSC 806812), and RMC-4630 (NSC839698), were obtained from the NCI Developmental Therapeutics Program Chemical Repository. The FDA-approved anticancer drug set is available from the Developmental Therapeutics Program at https://dtp.cancer.gov/organization/dscb/obtaining/available plates.htm. […] The stock solutions were prepared in dimethyl sulfoxide (DMSO, Sigma-Aldrich, St. Louis, MO, cat. D2650) at 800-fold the tested concentration and stored at -70 degrees C prior to their use. All drugs and investigational agents were tested over a range starting from a high concentration at or near the clinical Cmax and decreasing in half-log increments. If the clinical Cmax for an agent had not been determined, the highest concentration tested was 10 microM.
The patient-derived cancer (PDC) cell lines include five colon adenocarcinomas: 186277-243-T-J2-PDC, 616215-338-R-J1-PDC, 439559-082-T-J2-PDC, 463943-066-T-J2-PDC, and 519858-162-T-J1-PDC; three pancreatic carcinomas: 323965-272-R-J2-PDC, 521955-158-R6-J3-PDC, and 521955-158-R2-J5-PDC; two uterine sarcomas: 327498-152-R-J2-PDC and 993429-296-R-J1-PDC; two rhabdomyosarcomas: 755483-174-R-J1-PDC and 772245-204-R-J1-PDC; two soft tissue sarcomas: 126254-015-R-J1-PDC and 494315-158-R-J1-PDC; two malignant fibrous histiocytomas: 317291-083-R-J1-PDC and 596521-263-R-J1-PDC; two breast carcinomas: 171881-019-R-J1-PDC and 885512-296-R-J2-PDC; and one ovarian carcinoma: 6556581-035-R-J-PDC were obtained from the NCI PDMR, (https://pdmr.cancer.gov). The established cell lines HSSY-2 synovial sarcoma (RRID:CVCL 8719), SYO-1 synovial sarcoma (RRID:CVCL_7146), MPNST malignant peripheral neural sheath tumor were obtained from the Sloan Kettering Institute. The following established cell lines were purchased from the American Type Culture Collection (ATCC, Manassas, VA), Sor the received from the NCI repository:, PANC-1 pancreatic carcinoma (CRL-1469, RRID:CVCL_0480), OVCAR-5 ovarian carcinoma (RRID:CVCL_1628), OVCAR-8 ovarian carcinoma (RRID:CVCL_1629), , MCF-7 breast carcinoma (CRL-12584, RRID:CVCL_0031), MDA-MB-231 breast carcinoma (CRL-12532, RRID:CVCL_0062), NCI-H1876 small cell lung carcinoma (CRL-5902, RRID:CVCL_1503), NCI-H510A small cell lung carcinoma (HTB-184, RRID:CVCL_1565), NCI-H1417 (CRL-5869, RRID:CVCL_1469), and NCI-H196 small cell lung carcinoma (CRL-5823, RRID:CVCL_1509). Dr. Peter Houghton (Greehey Children's Cancer Research Institute, University of Texas Health Science Center, San Antonio, TX) provided Rh-18 rhabdomyosarcoma (RRID:CVCL_1659). Pooled donor human umbilical vein endothelial cells (HUVEC, Lonza, cat. CC-2519) and human mesenchymal stem cells (hMSC, Lonza, cat. PT-2501) were purchased from Lonza (Walkersville, MD).
Cell Culture. […]

[1] = curve of first compound, second compound 0.0316 µM
[2] = curve of first compound, second compound 0.1 µM
[3] = curve of first compound, second compound 0.316 µM
[4] = curve of first compound, second compound 1 µM
[5] = curve of first compound, second compound 3.16 µM
[6] = curve of first compound, second compound 10 µM
[7] = second compound 0.0316 µM, first compound 0.0316 µM
[8] = second compound 0.0316 µM, first compound 0.1 µM
[9] = second compound 0.1 µM, first compound 0.0316 µM
[10] = second compound 0.1 µM, first compound 0.1 µM
[11] = second compound 0.316 µM, first compound 0.0316 µM
[12] = second compound 0.316 µM, first compound 0.1 µM
[13] = second compound 1 µM, first compound 0.0316 µM
[14] = second compound 1 µM, first compound 0.1 µM
[15] = second compound 3.16 µM, first compound 0.0316 µM
[16] = second compound 3.16 µM, first compound 0.1 µM
[17] = second compound 10 µM, first compound 0.0316 µM
[18] = second compound 10 µM, first compound 0.1 µM

SMILES: Cn1ncnc1[C@H]1c2n[nH]c(=O)c3cc(F)cc(c23)N[C@@H]1c1ccc(F)cc1 + Cc1c(S(C)(=O)=O)c(-c2cc(F)cc(N3CCN(c4ccc(NS(=O)(=O)c5ccc(NC(CCN6CCC(C(=O)OCCCP(=O)(O)O)CC6)CSc6ccccc6)c(S(=O)(=O)C(F)(F)F)c5)cc4)CC3)c2)c(-c2ccc(Cl)cc2)n1C(C)C
- IC50 [1]: 20.6 nM
- IC50 [2]: 44.3 nM
- IC50 [3]: 32.1 nM
- IC50 [4]: 22.5 nM
- IC50 [5]: 39.4 nM
- IC50 [6]: 17.2 nM
- viability, T/C (second compound 0.0316 µM, first compound 0.000316 µM): 116%
- viability, T/C (second compound 0.0316 µM, first compound 0.001 µM): 113%
- viability, T/C (second compound 0.0316 µM, first compound 0.00316 µM): 74.6%
- viability, T/C (second compound 0.0316 µM, first compound 0.01 µM): 59.4%
- viability, T/C [7]: 50.7%
- viability, T/C [8]: 39.7%
- viability, T/C (second compound 0.1 µM, first compound 0.000316 µM): 100%
- viability, T/C (second compound 0.1 µM, first compound 0.001 µM): 89.8%
- viability, T/C (second compound 0.1 µM, first compound 0.00316 µM): 78.9%
- viability, T/C (second compound 0.1 µM, first compound 0.01 µM): 57.7%
- viability, T/C [9]: 50.5%
- viability, T/C [10]: 49%
- viability, T/C (second compound 0.316 µM, first compound 0.000316 µM): 103%
- viability, T/C (second compound 0.316 µM, first compound 0.001 µM): 75%
- viability, T/C (second compound 0.316 µM, first compound 0.00316 µM): 80.9%
- viability, T/C (second compound 0.316 µM, first compound 0.01 µM): 54.2%
- viability, T/C [11]: 50.9%
- viability, T/C [12]: 42.9%
- viability, T/C (second compound 1 µM, first compound 0.000316 µM): 106%
- viability, T/C (second compound 1 µM, first compound 0.001 µM): 81.7%
- viability, T/C (second compound 1 µM, first compound 0.00316 µM): 95.7%
- viability, T/C (second compound 1 µM, first compound 0.01 µM): 66.7%
- viability, T/C [13]: 44.8%
- viability, T/C [14]: 39.3%
- viability, T/C (second compound 3.16 µM, first compound 0.000316 µM): 110%
- viability, T/C (second compound 3.16 µM, first compound 0.001 µM): 86.8%
- viability, T/C (second compound 3.16 µM, first compound 0.00316 µM): 89.4%
- viability, T/C (second compound 3.16 µM, first compound 0.01 µM): 57.3%
- viability, T/C [15]: 50.6%
- viability, T/C [16]: 46.5%
- viability, T/C (second compound 10 µM, first compound 0.000316 µM): 85.3%
- viability, T/C (second compound 10 µM, first compound 0.001 µM): 83.6%
- viability, T/C (second compound 10 µM, first compound 0.00316 µM): 74.6%
- viability, T/C (second compound 10 µM, first compound 0.01 µM): 51.7%
- viability, T/C [17]: 49.9%
- viability, T/C [18]: 36.7%

SMILES: C#Cc1c(F)ccc2cc(O)cc(-c3ncc4c(N5CC6CCC(C5)N6)nc(OCC56CCCN5CC(F)C6)nc4c3F)c12 (stereo unspecified) + Cc1c(S(C)(=O)=O)c(-c2cc(F)cc(N3CCN(c4ccc(NS(=O)(=O)c5ccc(NC(CCN6CCC(C(=O)OCCCP(=O)(O)O)CC6)CSc6ccccc6)c(S(=O)(=O)C(F)(F)F)c5)cc4)CC3)c2)c(-c2ccc(Cl)cc2)n1C(C)C
- IC50 [1]: > 10000 nM
- IC50 [2]: > 10000 nM
- IC50 [3]: > 10000 nM
- IC50 [4]: > 10000 nM
- IC50 [5]: > 10000 nM
- IC50 [6]: > 10000 nM
- viability, T/C [7]: 96.2%
- viability, T/C [8]: 90%
- viability, T/C (second compound 0.0316 µM, first compound 0.316 µM): 89.6%
- viability, T/C (second compound 0.0316 µM, first compound 1 µM): 92.3%
- viability, T/C (second compound 0.0316 µM, first compound 3.16 µM): 98.4%
- viability, T/C (second compound 0.0316 µM, first compound 10 µM): 91.8%
- viability, T/C [9]: 104%
- viability, T/C [10]: 103%
- viability, T/C (second compound 0.1 µM, first compound 0.316 µM): 87.5%
- viability, T/C (second compound 0.1 µM, first compound 1 µM): 84.1%
- viability, T/C (second compound 0.1 µM, first compound 3.16 µM): 83.4%
- viability, T/C (second compound 0.1 µM, first compound 10 µM): 82.5%
- viability, T/C [11]: 91%
- viability, T/C [12]: 83%
- viability, T/C (second compound 0.316 µM, first compound 0.316 µM): 73.7%
- viability, T/C (second compound 0.316 µM, first compound 1 µM): 86.7%
- viability, T/C (second compound 0.316 µM, first compound 3.16 µM): 88.6%
- viability, T/C (second compound 0.316 µM, first compound 10 µM): 86.5%
- viability, T/C [13]: 86%
- viability, T/C [14]: 95.9%
- viability, T/C (second compound 1 µM, first compound 0.316 µM): 81.9%
- viability, T/C (second compound 1 µM, first compound 1 µM): 82.6%
- viability, T/C (second compound 1 µM, first compound 3.16 µM): 79%
- viability, T/C (second compound 1 µM, first compound 10 µM): 85.7%
- viability, T/C [15]: 80.3%
- viability, T/C [16]: 77.7%
- viability, T/C (second compound 3.16 µM, first compound 0.316 µM): 88.7%
- viability, T/C (second compound 3.16 µM, first compound 1 µM): 72.5%
- viability, T/C (second compound 3.16 µM, first compound 3.16 µM): 74.1%
- viability, T/C (second compound 3.16 µM, first compound 10 µM): 80.5%
- viability, T/C [17]: 272%
- viability, T/C [18]: 226%
- viability, T/C (second compound 10 µM, first compound 0.316 µM): 251%
- viability, T/C (second compound 10 µM, first compound 1 µM): 292%
- viability, T/C (second compound 10 µM, first compound 3.16 µM): 249%
- viability, T/C (second compound 10 µM, first compound 10 µM): 196%

SMILES: CCN1CCN(Cc2ccc(Nc3ncc(F)c(-c4cc(F)c5nc(C)n(C(C)C)c5c4)n3)nc2)CC1
- viability, T/C (compound 0.00316 µM): 111% and 93.3% and 96.7%
- viability, T/C (compound 0.01 µM): 95.5% and 104% and 99.9%
- viability, T/C (compound 0.0316 µM): 103% and 93.3% and 99.2%
- viability, T/C (compound 0.1 µM): 116% and 96.6% and 91.2%
- viability, T/C (compound 0.316 µM): 99% and 97% and 81.4%
- viability, T/C (compound 1 µM): 74.3% and 86.7% and 72.5%
- IC50 (curve of compound): > 1000 nM

From PubChem BioAssay AID1963445 (Molecular Pharmacology Branch, DTP, NCI, 2024)
